Patent US20120108667A1, “HYDROXY CERAMIDES AND ANALOGS THEREOF AND THEIR USE FOR PREVENTING OR TREATING CANCER” (priority 2010, published 2012)
Several values for one entry are separate records, joined by “and”; a condition that tells them apart may be missing. Identical values can stand only once. Like-named read-outs stand apart in the source and are kept apart here.

Tests used:
MCF7 cells [1] = test: LC-MS/MS cellular levels of exogenously added compounds in MCF7 cells; format: cell-based, human; conditions: for cellular level of the analog, time course / cellular level of the analog, concentration dependent / cellular uptake, early level: MCF7 cells; for cellular level of the analog, time course / cellular uptake, early level: 10 μM; for cellular level of the analog, time course: up to 24 h; for cellular accumulation: MCF7 cells (Example 6); for cellular level of the analog, concentration dependent: 24 h; for cellular uptake, early level: up to ~1 h
Protocol: (§1) MCF7 cells (breast adenocarcinoma, pleural effusion) were purchased from American type Culture Collection (ATCC, Rockville, Md., USA) and grown in RPMI 1640 media (Life Technologies, Inc) supplemented with 10% fetal calf serum (FCS, Summit Biotechnology, CO, USA) and maintained under standard incubator conditions (humidified atmosphere 95% air, 5% CO2, 37° C.). A parallel set of cells was used to determine cell proliferation and to prepare lipid extracts for MS analysis.
(§2) Advanced analyses were performed on a Thermo Finnigan TSQ 7000, triple-stage quadrupole mass spectrometer operating in a Multiple Reaction Monitoring (MRM) positive ionization mode as described (J. Bielawski, et al., Methods 39 (2006), p. 82; J. Bielawski, et al., Methods Mol. Biol. 579 (2009), p. 443). Quantitative analysis of the cellular level of 2′-OH—C6-Cers/dhCers and C6-Cer/dhCer was based on the calibration curves generated by spiking an artificial matrix with known amounts of target standards and an equal amount of the internal standard (IS). The target analyte to IS peak area ratios from the samples were similarly normalized to their respective IS and compared to the calibration curves using a linear regression model. Final results were expressed as the level of the particular SPLs/phospholipids (Pi) determined from the Bligh & Dyer lipid extract and expressed as SPLs/Pi (pmol/nmol).

dhCer desaturase = biological target: T1, dhCer desaturase (Homo sapiens, UniProt O15121); test: Conversion of C6-dhCer analogs to their unsaturated analogs in MCF7 cells; format: cell-based; conditions: 24 h treatment
T1 construct: endogenous in cells; host or cells: MCF7
T1 sequence (O15121 1-323): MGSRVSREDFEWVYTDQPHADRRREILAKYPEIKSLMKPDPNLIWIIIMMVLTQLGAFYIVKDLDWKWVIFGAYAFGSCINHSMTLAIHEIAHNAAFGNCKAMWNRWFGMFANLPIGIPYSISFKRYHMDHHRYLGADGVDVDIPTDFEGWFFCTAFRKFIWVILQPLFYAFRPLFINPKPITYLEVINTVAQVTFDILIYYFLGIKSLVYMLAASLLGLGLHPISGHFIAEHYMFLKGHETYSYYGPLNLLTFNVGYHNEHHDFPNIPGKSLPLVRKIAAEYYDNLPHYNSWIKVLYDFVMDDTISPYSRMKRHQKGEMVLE
Protocol: as §2

MCF7 cells [2] = test: Cell proliferation of MCF7 cells (cell counts, Trypan blue, 24 h); format: cell-based, human; conditions: for IC50: read-out: IC50, MCF7 cell growth inhibition
Protocol: as §1
MCF7 cells were seeded at a density of ˜50% (corresponding to 1×10^6 cells) in 10 ml of 10% FCS and, after an overnight incubation, were treated with the compounds at (0-50 μM) in ethanol (<0.1%) and the changes in cell numbers after 24 h were determined and expressed as a percentage of the untreated controls. Briefly, media were removed, cells were washed twice with PBS, detached using 1% Trypsin and centrifuged at 800 rpm. Cell pellets were resuspended in PBS and Trypan blue (Sigma Chemicals, St. Louis, Mo., USA) was added (1:1 dilution). Under a light microscope, the percentage of unstained and stained cells was assessed.

[3] = test system: endogenous SPLs in MCF7 cells; test: LC-MS/MS analysis of endogenous SPLs in treated MCF7 cells; format: cell-based, human; conditions: for elevation of cellular dhCer: 40 μM treatment
Protocol: as §1, §2

HL60 leukemia cells = conditions: previously reported; cited from earlier work
[4] = 10 μM, time-dependent experiment, data not shown

## CCCCCCCCCCCCCCC[C@@H](O)[C@H](CO)NC(=O)[C@@H](O)CCCC [LCL466, (2S,3R,2′S)-2′-Hydroxy-C6-dihydroceramide]
MCF7 cells [1]
  cellular level of the analog, time course: elevated up to 5 h reaching the level of C6-dhCer and remaining constant up to 24 h
dhCer desaturase
  conversion to the corresponding unsaturated analog: up to 12%
MCF7 cells [2]; listed as (2′S)-2′-OH—C6-dhCer
  IC50: ~12 µM and 12 µM
[3]; 10 μM
  effect on Cer species, time dependent: elevated all Cer species
[3]; 10 μM, at 24 h
  cellular Cers level, time dependent: the same as for 5 h treatment
  cellular dhCers level, time dependent: the same as for 5 h treatment
[3]; 10 μM, data not shown
  effect on dhCer species, time dependent: elevated all dhCer species
[3]; 10 μM, up to 5 h
  cellular Cers level, time dependent: 200%
  cellular dhCers level, time dependent: 200%
[3]; 24 h
  elevation of cellular dhCer: ~19 fold
  cellular Sph level, concentration dependent: elevation of cellular Sph
[3]; 40 μM, 24 h
  increase of cellular dhSph: ~16 fold
[3]; 24 h, results not shown
  elevation of dhC16-Cer (C16-dhCer): up to 25 fold
[3]; MCF7 cells
  C16-Cer/C16-dhCer fold ratio: 50/25
  effectiveness as inducer of cellular dhCers, Cers, dhSph and Sph: three time more effective than C6-dhCer

## CCCCCCCCCCCCC/C=C/[C@@H](O)[C@H](CO)NC(=O)[C@@H](O)CCCC [LCL367, (2S,3R,2′S,4E)-2′-Hydroxy-C6-ceramide]
MCF7 cells [1]
  cellular accumulation: higher cellular accumulation
  cellular level of the analog, time course: elevated up to 2.5 h followed by a small decrease at 5 h and plateau to 24 h
  cellular level of the analog, concentration dependent: highest level

## CCCCCCCCCCCCC/C=C/[C@@H](O)[C@H](CO)NC(=O)[C@H](O)CCCC [LCL366, (2S,3R,2′R,4E)-2′-Hydroxy-C6-ceramide]
MCF7 cells [1]
  cellular accumulation: low cellular accumulation
  cellular level of the analog, time course: progressively decreased to the lowest level among all tested analogs at 24 h
  cellular uptake, early level: highest levels
  cellular level of the analog, concentration dependent: lowest level

## CCCCCCCCCCCCCCC[C@@H](O)[C@H](CO)NC(=O)[C@H](O)CCCC [LCL467, (2S,3R,2′R)-2′-Hydroxy-C6-dihydroceramide]
MCF7 cells [1]
  cellular level of the analog, time course: showed the lowest level, remaining in a plateau between 2.5-24 h
dhCer desaturase
  conversion to the corresponding unsaturated analog: up to 5%
MCF7 cells [2]; 20 μM
  effect of 20 μM treatment on cells: total cell death
MCF7 cells [2]; listed as (2′R)-2′-OH—C6-dhCer
  IC50: ~8 µM and 8 µM
[3]; 10 μM, 24 h, concentration-dependent experiment
  endogenous Cer (total) level: ~150%
[3]; 10 μM, at 24 h
  cellular Cers level, time dependent: ~140%
  cellular dhCers level, time dependent: remained unchanged
[3]; [4]
  decrease of long chain dhCers: 10-25%
  increase of very long chain dhCers: 20-30%
[3]; 10 μM, up to 5 h
  cellular Cers level, time dependent: did not affect
  cellular dhCers level, time dependent: did not affect
[3]; 1-5 μM, 24 h
  decrease of C16-Cer: up to 60%
[3]; 24 h
  cellular Sph level, concentration dependent: ~80%
  effect on cellular dhSph: did not affect
[3]; 24 h, results not shown
  C14-dhCer level (decrease to): 25 % control
  elevation of dhC16-Cer (C16-dhCer): did not elevate
[3]; MCF7 cells
  effectiveness as inducer of cellular dhCers, Cers, dhSph and Sph: not effective
[3]; up to 5 μM, 24 h
  effect on cellular Cer: did not affect

## CCCCCCCCCCCCC/C=C/[C@@H](O)[C@H](CO)NC(=O)[C@H](C)O [(2′S)-2′-OH—C3-Cer]
HL60 leukemia cells
  potency relative to the other isomer: much more potent then its (2′R)-isomer

## CCCCCCCCCCCCCCC[C@@H](O)[C@H](CO)NC(=O)CCCCC [C6-dhCer]
MCF7 cells [1]
  cellular level of the analog, time course: followed the curve of C6-Cer, however at a lower rate
dhCer desaturase
  conversion to the corresponding unsaturated analog: 42%
MCF7 cells [2]
  concentration at which an inhibitory effect on cell growth is caused: higher than 10 μM
  IC50: ~38 µM and 38 µM
[3]; 10 μM
  effect on Cer species, time dependent: elevated all Cer species
  effect on cellular Sph, time dependent: slightly increased
[3]; 10 μM, at 24 h
  cellular Cers level, time dependent: 280%
  cellular dhCers level, time dependent: decreased to almost control level
[3]; 10 μM, data not shown
  effect on dhCer species, time dependent: elevated all dhCer species
[3]; 10 μM, up to 5 h
  cellular Cers level, time dependent: 310%
  cellular dhCers level, time dependent: 750%
[3]; 24 h
  elevation of cellular dhCer: ~7 fold
[3]; 40 μM, 24 h
  endogenous Cer level: 550%
  increase of cellular dhSph: ~5 fold
[3]; 24 h, results not shown
  elevation of dhC16-Cer (C16-dhCer): ≤ 13 fold
[3]; MCF7 cells
  C16-Cer/C16-dhCer fold ratio: 50/13
  influence on levels of cellular Cers/dhCers: significantly increased the levels of their cellular long chain homologs
[3]; at a low concentration, 24 h
  cellular Sph level (decrease to): ~70%
[3]; up to 10 μM, 24 h
  effect on cellular dhCers: did not induce elevation of cellular dhCers

## CCCCCCCCCCCCC/C=C/[C@@H](O)[C@H](CO)NC(=O)CCCCC [C6-Cer]
MCF7 cells [1]
  cellular level of the analog, time course: progressively increased up to 5 h followed by decrease at 24 h
  cellular uptake, early level: highest levels
MCF7 cells [2]; listed as C6-ceramide
  IC50: 12 µM
MCF7 cells [2]
  IC50: ~12 µM
[3]; 10 μM, at 24 h
  cellular Cers level, time dependent: 350%
[3]; 10 μM, up to 5 h
  cellular Cers level, time dependent: 500%
[3]; 20 μM treatment, 24 h
  increase of C14-Cer: ~40 fold
  increase of C16-Cer: ~20 fold
  increase of C18-Cer: ~80 fold
  increase of C24-Cer: ~0.2 fold
  increase of C24:1-Cer: fivefold
[3]; 20 μM, 24 h
  cellular S1P level: 800%
  endogenous Cer (total) level: up to 900%
  endogenous Sph level: ≤ 600%
[3]; 24 h
  concentration from which all Cer species are elevated: ≥ 5 µM
[3]; MCF7 cells
  influence on levels of cellular Cers/dhCers: significantly increased the levels of their cellular long chain homologs
  metabolism/conversion to cellular long chain 2′-OH homologs (2′-OHCer analogs): not converted to the cellular 2′-OHCer analogs
